Data as given in US20100040710A1, “Stimulation of the synthesis and of the activity of an isoform of lysyl oxidase-like LOXL for stimulating the formation of elastic fibers” (BASF Beauty Care Solutions France SAS, priority 2003, published 2010).
Marks after values point to notes of the source that are not given here.

Legend:
Type in all cases: cell-based, human
LOX mRNA [1] = test: Real time RT-PCR effectiveness study: LOX mRNA in adult fibroblasts; settings: 24 hours, adult abdomen fibroblasts (donor)
LOXL mRNA [2] = test: Screening of active principles by qualitative RT-PCR: LOXL mRNA expression in fibroblasts; settings: actives at 1% (v/v), 24 hours, fibroblasts of the abdomen of mature age adult (donor), mRNA vs actin and negative control
Experimental: (§1) The active principles were tested at 1% (v/v) on fibroblasts of normal human skin (originating from the foreskin of the infant or originating from the adult). The culture was carried out, e.g. in a monolayer on 24-well culture plates, in a defined medium without serum (Fibroblast Basal Medium). The cells were sown, e.g. at 40,000 per cm^2. At the confluence, the cells are placed in contact with the actives advantageously for 24 hours. In parallel, a non-treated control (medium alone) and three positive controls (TGF-β at 1 ng/ml, IL-1α at […] and Phytokine® (Coletica, Lyons, France) at 2% (v/v)) are advantageously carried out, e.g. on the same culture plate.
(§2) The TGF-β at 1 ng/ml and the IL-1α at 50 pg/ml were tested beforehand and the stimulation of the synthesis of elastin mRNA induced by these two cytokines at these concentrations was verified by an analysis of the mRNAs, e.g. by quantitative RT-PCR (×10 for TGF-β and x6 for IL-1 alpha). After the time of placing the actives in contact with the cells, e.g. 24 hours, the media are removed and the cells are preserved e.g. by dry freezing at −80° C. after a rinsing in phosphate buffer pH 7.4. The total RNAs are extracted e.g. with the aid of an extraction kit of 96 wells on silica columns and were determined on a 96-well spectrophotometer at 260 nm (purity indicator: protein determination at 280 nm). The RNAs are diluted e.g. to 5 ng/μl. The qualitative RT-PCR in 1 step is carried out e.g. on 50 ng of initial RNA on a 96-well plate, on the genes of actin, elastin, of LOX and of LOXL. The specific primers of each gene are used e.g. at 0.5 μM: […]
(§3) The amplification parameters were advantageously the following 48° C., 30 min; 94° C., 2 min; (94° C., 30 seconds; 60° C., 30 seconds; 68° C., 30 seconds) 28 cycles for actin, 30 cycles for LOXL, 32 cycles for LOX, or 34 cycles for elastin; 68° C., 10 min; 14° C., infinity. […] The photographs of the gels were analyzed by image analysis and quantification of the intensity of the bands (Phoretix1D, France). […]

LOX mRNA [3] = test: Screening of active principles by qualitative RT-PCR: LOX mRNA expression in fibroblasts; settings: actives at 1% (v/v), 24 hours, fibroblasts of the abdomen of mature age adult (donor), mRNA vs actin and negative control
Experimental: as §1, §2, §3

LOXL mRNA [4] = test: Real time RT-PCR effectiveness study: LOXL mRNA in adult fibroblasts; settings: 24 hours, adult abdomen fibroblasts (donor)
Experimental: (§4) […] The culture was carried out e.g. in monolayer in 24-well plates, in a defined medium without serum (Fibroblast Basal Medium). The cells are sown e.g. at 40,000 per cm^2. After the time of placing the actives in contact with the cells (24 hours), the media were removed and the cells were preserved e.g. by dry freezing at −80° C. after a rinsing with phosphate buffer at pH 7.4. At the end of experimentation, the content of mRNA of elastin, of LOXL and of actin is evaluated by an mRNA analysis technique, e.g. by real time RT-PCR. For this, the couples of primers enabling the amplification of specific fragments of these genes are those described above (Example 10).
(§5) After extraction e.g. with the aid of an extraction kit in 96-wells on silica columns and determination on a 96-well spectrophotometer at 260 nm, the RNAs are diluted e.g. to 5 ng/μl. The RT-PCR reactions ([…]) were carried out by quantitative real time RT-PCR with the aid of the “Opticon” system (MJ Research). Advantageously, the reaction mixture (50 μl) introduced into the wells was the following, for each sample: • 10 μl of RNA at a concentration of 5 ng/μl, • The specific primers of the various labels sought after, • Reaction mixture (Qiagen−25 μl 2×QuantiTect SYBR Green RT-PCR master mix containing 5 mM MgCl2+0.5 μl QuantITect RT mix), the label SYBR Green I inserting in the DNA double strands during the elongation step. The RT-PCR Conditions were Advantageously the Following: Reverse Transcription: 30 minutes at 50° C., then 15 minutes at 95° C., PCR reactions: [15 seconds at 94° C., 30 seconds at 60° C. and 30 seconds at 72° C.], 50 cycles.
(§6) The absence of contamination and the purity of the amplified products were verified e.g. via the fusion curves of the amplified PCR products. The products presenting a double peak or an abnormal fusion temperature were eliminated.
(§7) The incorporation of fluorescence in the amplified DNA was evaluated continuously during the PCR cycles. This system enabled obtaining curves of fluorescence measurement as a function of the number of PCR cycles and thus enabled evaluating a relative amount of amplified DNA.
(§8) In order to take account of the cell population present, all the results were compared to the <> signal, which was used as housekeeping gene. According to the experimentation, the threshold of measurement of the C(T) (=Cycle Threshold) was fixed for T between 0.05 and 0.01, and then an arbitrary measurement unit is calculated for each gene according to the formula:
(§9) Sgene<=10^7×(1/2)^C(T)gene<>
(§10) C (T)gene <> signifying the number of cycles necessary to attain the cycle threshold of 0.01-0.05 of the gene <>.
(§11) The values of the genes of interest were compared to the <> signal by calculation of the ratio: […]

elastin (Eln) mRNA = test: Screening of active principles by qualitative RT-PCR: elastin mRNA expression in fibroblasts; settings: actives at 1% (v/v), 24 hours, fibroblasts of the abdomen of mature age adult (donor), mRNA vs actin and negative control
Experimental: as §1, §2, §3

elastin mRNA [5] = test: Real time RT-PCR effectiveness study: elastin mRNA in adult fibroblasts; settings: 24 hours, adult abdomen fibroblasts (donor)
Experimental: as §4, §5, §6, §7, §8, §9, §10, §11

elastin mRNA [6] = test: Positive controls: stimulation of elastin mRNA synthesis by quantitative RT-PCR; settings: 1 ng/ml, fold (×)
Experimental: as §1
as §2, with “nm).” for “nm). The RNAs are diluted e.g. to 5 ng/μl. The qualitative RT-PCR in 1 step is carried out e.g. on 50 ng of initial RNA on a 96-well plate, on the genes of actin, elastin, of LOX and of LOXL. The specific primers of each gene are used e.g. at 0.5 μM:”

Molecule: CCCC(=O)OC [methyl butyrate]
- LOX Control multiplied by: (LOX mRNA [1]; active at 0.01%): 1.04
- LOX Control multiplied by: (LOX mRNA [1]; active at 0.1%): 1.76*
- LOX Control multiplied by: (LOX mRNA [1]; active at 1%): 2.17*
- LOX Control multiplied by: (LOX mRNA [1]; active at 5%): 0.91
- LOXL Control multiplied by: (LOXL mRNA [2]): 3.24
- LOX Control multiplied by: (LOX mRNA [3]): 5.08
- LOXL Control multiplied by: (LOXL mRNA [4]; active at 0.01%): 0.89
- LOXL Control multiplied by: (LOXL mRNA [4]; active at 0.1%): 1.56
- LOXL Control multiplied by: (LOXL mRNA [4]; active at 1%): 2.10*
- LOXL Control multiplied by: (LOXL mRNA [4]; active at 5%): 0.91
- Eln Control multiplied by: (elastin (Eln) mRNA): 1.43
- El Control multiplied by: (elastin mRNA [5]; active at 0.01%): 0.92
- El Control multiplied by: (elastin mRNA [5]; active at 0.1%): 0.96
- El Control multiplied by: (elastin mRNA [5]; active at 1%): 1.25
- El Control multiplied by: (elastin mRNA [5]; active at 5%): 1.70*

Molecule: TGF-β
- stimulation of the synthesis of elastin mRNA (elastin mRNA [6]): 10

Molecule: ethyl decadienoate
- LOXL Control multiplied by: (LOXL mRNA [2]): 2.32
- LOX Control multiplied by: (LOX mRNA [3]): 3.64
- Eln Control multiplied by: (elastin (Eln) mRNA): 2.04

Molecule: ethyl hexenoate
- LOXL Control multiplied by: (LOXL mRNA [2]): 2.33
- LOX Control multiplied by: (LOX mRNA [3]): 3.09
- Eln Control multiplied by: (elastin (Eln) mRNA): 1.5
